In US8623844B2, “Fosaprepitant dimeglumine intermediate, neutral fosaprepitant, and amorphous fosaprepitant dimeglumine and processes for their preparations” (priority 2008, dated 2014):

Assays:
[1] = cited from earlier work
[2] = Stability studies of amorphous form, series of XRPD spectra (FIG. 7); type: physicochemical; details: about 2° C. to about 8° C., relative humidity less than about 60%, about 7 days to about 2 months
Experimental: The diffractogram was obtained using a Powder X-ray Diffractometer (Philips X'Pert Pro, PANalytical®) with a Cu radiation of λ=1.540598Å. The measurements were carried out from 2 degrees to 50 degrees with times per step of 50 seconds.
The stability data, shown as series of XRPD scans, are substantially in accordance with FIG. 7.

| Structure (SMILES) | degradation on storage ([1]; normal ambient temperatures, stored at −20° C. to avoid degradation, J. Med. Chem. 2000, 43, 1234-1241) | stability of amorphous form on exposure ([1]; normal room temperature, as well as about 2° C.-8° C., transforms into crystalline form) | stability of amorphous polymorphic form (XRPD) [2] |
| --- | --- | --- | --- |
| CNC[C@H](O)[C@@H](O)[C@H](O)[C@H](O)CO.CNC[C@H](O)[C@@H](O)[C@H](O)[C@H](O)CO.C[C@@H](O[C@H]1OCCN(Cc2nn(P(=O)(O)O)c(=O)[nH]2)[C@H]1c1ccc(F)cc1)c1cc(C(F)(F)F)cc(C(F)(F)F)c1 | degrades at normal ambient temperatures | loses its stability | – |
| CNC[C@H](O)[C@@H](O)[C@H](O)[C@H](O)CO.CNC[C@H](O)[C@@H](O)[C@H](O)[C@H](O)CO.C[C@@H](O[C@H]1OCCN(Cc2nc(=O)n(P(=O)(O)O)[nH]2)[C@H]1c1ccc(F)cc1)c1cc(C(F)(F)F)cc(C(F)(F)F)c1 [amorphous fosaprepitant dimeglumine, 1-deoxy-1-(methylamino)-D-glucitol[3-[[(2R,3S)-2-[(1R)-1-[3,5-bis(trifluoromethyl)phenyl]-ethoxy]-3-(4-fluorophenyl)-4-morpholinyl]methyl]-2,5-dihydro-5-oxo-1H-1,2,4-triazol-1-yl]phosphonate (2:1) (salt)] | – | – | substantially stable |
